Measured values taken from the CheMixHub viscosity set.

Assay: xn = mol fraction of the nth substance listed

O=C1CCCC1 + Clc1ccccc1
298.15 K, 101 kPa
Conditions | viscosity [mPa·s]
x2 = 0.0165 | 1.122
x2 = 0.0498 | 1.117
x2 = 0.1006 | 1.108
x2 = 0.1542 | 1.097
x2 = 0.2087 | 1.084
x2 = 0.266 | 1.068
x2 = 0.3245 | 1.05
x2 = 0.3841 | 1.023
x2 = 0.4488 | 0.993
x2 = 0.5148 | 0.959
x2 = 0.5836 | 0.92
x2 = 0.6542 | 0.882
x2 = 0.739 | 0.835
x2 = 0.8057 | 0.802
x2 = 0.8869 | 0.769
x2 = 0.9704 | 0.745

O=C1CCCC1 + CN(C)c1ccccc1
viscosity [mPa·s], 101 kPa
Conditions | 303.15 K | 308.15 K
x2 = 0.0705 | 1.022 | 0.948
x2 = 0.1321 | 1.04 | 0.964
x2 = 0.2014 | 1.062 | 0.981
x2 = 0.2754 | 1.083 | 0.997
x2 = 0.3412 | 1.101 | 1.011
x2 = 0.4012 | 1.114 | 1.023
x2 = 0.4825 | 1.13 | 1.039
x2 = 0.5612 | 1.143 | 1.053
x2 = 0.6405 | 1.153 | 1.066
x2 = 0.7025 | 1.158 | 1.076
x2 = 0.7758 | 1.164 | 1.087
x2 = 0.8512 | 1.168 | 1.096
x2 = 0.9215 | 1.169 | 1.104

ClC=C(Cl)Cl + C1CCOC1
303.15 K, 101 kPa
Conditions | viscosity [mPa·s]
x2 = 0.0614 | 0.5484
x2 = 0.1057 | 0.5631
x2 = 0.2281 | 0.5879
x2 = 0.3529 | 0.5932
x2 = 0.4929 | 0.5817
x2 = 0.5166 | 0.5781
x2 = 0.64 | 0.556
x2 = 0.7608 | 0.5289
x2 = 0.8813 | 0.4983
x2 = 0.9421 | 0.4822

C1COCCN1 + O
293.15 K, 101 kPa
Conditions | viscosity [mPa·s]
x1 = 0.01898 | 1.327
x1 = 0.04739 | 1.963
x1 = 0.08285 | 3.082
x1 = 0.1083 | 4.064
x1 = 0.1739 | 7.227
x1 = 0.2362 | 10.22
x1 = 0.2817 | 11.61
x1 = 0.3018 | 11.87
x1 = 0.3247 | 12.17
x1 = 0.3476 | 12.13
x1 = 0.3543 | 12.09
x1 = 0.4548 | 10.43
x1 = 0.68 | 5.954

CC(O)CO (stereo not given) + CC#N
viscosity [mPa·s], 100 kPa
Conditions | x2 = 0.1127 | x2 = 0.2 | x2 = 0.3055 | x2 = 0.4021 | x2 = 0.5008 | x2 = 0.5989 | x2 = 0.6987 | x2 = 0.7958 | x2 = 0.8961
293.15 K | 31.4 | 20.3 | 12.2 | 7.53 | 4.71 | 2.9 | 1.82 | 1.1 | 0.66
298.15 K | 25.4 | 16.9 | 10.3 | 6.21 | 4.02 | 2.42 | 1.57 | 0.97 | 0.59
303.15 K | 20.8 | 13.8 | 8.68 | 5.48 | 3.52 | 2.25 | 1.4 | 0.87 | 0.53

ClC=C(Cl)Cl + COCCO
viscosity [mPa·s], 101.33 kPa
Conditions | x1 = 0.1175 | x1 = 0.2132 | x1 = 0.3211 | x1 = 0.4746 | x1 = 0.5328 | x1 = 0.6149 | x1 = 0.7063 | x1 = 0.8042 | x1 = 0.9056
303.15 K | 1.317 | 1.181 | 1.041 | 0.86 | 0.804 | 0.731 | 0.659 | 0.597 | 0.546
313.15 K | 1.074 | 0.981 | 0.88 | 0.746 | 0.703 | 0.648 | 0.591 | 0.543 | 0.504
